Data reported in PMC8552601, “Entamoeba Chitinase is Required for Mature Round Cyst Formation” (Microbiology Spectrum, 2021).

Assays:
Format in all cases: biochemical
[1] = biological target: T1, Entamoeba invadens chitinase 4 (rEiCht4) (Entamoeba invadens, UniProt A0A0A1TXF4); assay: 4-MU release by purified recombinant enzyme, specific activity
T1 construct: gene EIN_136020

[2] = biological target: T2, Entamoeba invadens chitinase 1 (rEiCht1) (Entamoeba invadens, UniProt A0A0A1U6V8); assay: as above
T2 construct: gene EIN_404540
T2 sequence (A0A0A1U6V8 entry or part of it): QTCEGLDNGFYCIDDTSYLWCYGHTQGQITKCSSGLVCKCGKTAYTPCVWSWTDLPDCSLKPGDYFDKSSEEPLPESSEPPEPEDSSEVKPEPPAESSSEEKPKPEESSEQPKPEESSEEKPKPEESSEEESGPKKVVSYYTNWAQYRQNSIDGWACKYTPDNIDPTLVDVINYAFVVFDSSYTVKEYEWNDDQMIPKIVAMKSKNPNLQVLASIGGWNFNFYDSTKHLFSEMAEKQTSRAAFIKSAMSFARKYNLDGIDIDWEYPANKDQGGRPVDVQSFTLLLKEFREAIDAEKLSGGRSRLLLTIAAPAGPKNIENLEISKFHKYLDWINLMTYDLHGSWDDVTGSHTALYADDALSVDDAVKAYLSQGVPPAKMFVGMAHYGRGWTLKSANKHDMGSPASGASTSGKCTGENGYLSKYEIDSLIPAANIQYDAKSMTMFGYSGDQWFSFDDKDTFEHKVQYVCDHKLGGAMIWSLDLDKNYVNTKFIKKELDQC

[3] = biological target: T2, Entamoeba invadens chitinase 1 (rEiCht1); assay: fluorogenic 4MU-(GlcNAc)[…] hydrolysis assay with purified recombinant enzyme
[4] = biological target: T1, Entamoeba invadens chitinase 4 (rEiCht4); assay: as above

T1 sequence (A0A0A1TXF4 entry or part of it): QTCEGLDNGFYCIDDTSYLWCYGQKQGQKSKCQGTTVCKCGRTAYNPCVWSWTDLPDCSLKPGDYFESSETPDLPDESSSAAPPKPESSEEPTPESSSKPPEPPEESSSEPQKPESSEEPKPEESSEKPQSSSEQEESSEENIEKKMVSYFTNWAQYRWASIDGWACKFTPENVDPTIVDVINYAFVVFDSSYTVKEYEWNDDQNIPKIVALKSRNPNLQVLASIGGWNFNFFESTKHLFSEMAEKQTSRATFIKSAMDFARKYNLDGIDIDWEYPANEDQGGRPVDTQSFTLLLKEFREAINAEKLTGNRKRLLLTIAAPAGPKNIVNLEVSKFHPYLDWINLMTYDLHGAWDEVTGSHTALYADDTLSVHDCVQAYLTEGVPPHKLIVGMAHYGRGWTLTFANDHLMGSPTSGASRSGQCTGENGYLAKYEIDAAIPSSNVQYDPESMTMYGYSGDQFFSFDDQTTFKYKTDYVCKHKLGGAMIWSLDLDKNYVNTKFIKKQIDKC

Compound | 4-MU release by purified recombinant enzyme, specific activity [1] [μmol/min/mg protein] | 4-MU release by purified recombinant enzyme, specific activity [2] [μmol/min/mg protein] | IC50 [3] [nM] | IC50 [4] [nM]
CC(=O)N[C@H]1[C@H](Oc2ccc3c(C)cc(=O)oc3c2)O[C@H](CO)[C@@H](O[C@@H]2O[C@H](CO)[C@@H](O[C@@H]3O[C@H](CO)[C@@H](O)[C@H](O)[C@H]3NC(C)=O)[C@H](O)[C@H]2NC(C)=O)[C@@H]1O [4-methylumbelliferyl β-D-N,N′,N′′-triacetylchitotrioside] | 6.3 ± 1.1 | 11.7 ± 5.3 |  | 
Cc1nn(C)c(C)c1NS(=O)(=O)c1c(Cl)cc(-c2ccnc(N3CCNCC3)c2)cc1Cl [D-B-09, 2,6-dichloro-4-[2-(1-piperazinyl)-4-pyridinyl]-N-(1,3,5-trimethyl-1H-pyrazol-4-yl)-benzenesulfonamide] |  |  | 800 ± 200 | 2500 ± 1300
